Source: patent publication US20090232909A1, “Method for determining physiological effects of hemoglobin” (priority 1999, published 2009)

What was measured:
Hb = Hb (Homo sapiens, UniProt P68871+P69905); assay: Titration of normoxic Hb with NO, fitted UV-visible difference spectra; type: biochemical; parameters: purchased Apex Bioscience (Research Triangle Park, N.C.)
Description: Air-oxygenated Hb was titrated with 0.22 μM NO. Samples were analyzed immediately after NO addition by UV-visible spectrophotometry. Time between additions varied from 3 to 5 minutes.
The extinction coefficient spectra of metHb, deoxyhb, iron nitrosylHb and oxyHb were generated from pure solutions of each species. HbA was diluted into PBS (pH 7.4) to a known final heme concentration [as calculated by the pyridine-hemochromagen method (Antonini, E., et al., p. 13 in Frontiers in Biology, Neuberger, A. and Tatum, E. L. eds., North-Holland Publishing, Co., Amsterdam, London, 1971)]. MetHb was synthesized by adding excess K3FeCN6. DeoxyHb was measured after the addition of dithionite, and nitrosyl- and oxyHb were measured following saturation with each ligand.
Difference spectra were obtained by subtracting the UV-visible spectrum of a given sample before the addition of NO from those after. The simple competition model discussed above, predicts that such difference spectra could be approximated by a linear combination of two standard difference spectra: an oxyHb minus metHb spectrum, which gauges the progress of the NO oxidation reaction, and a deoxyHb minus iron nitrosyHb, which gauges the NO addition reaction; the sum of the combining coefficients is fixed by the mass balance ([NO]0). Standard difference spectra were obtained from UV-visible spectra of authentic samples of metHb, oxyHb, nitrosylHb, and deoxyHb. We determined combining coefficients by a least-squares fitting procedure. Inasmuch as the deoxy- and/or oxyheme concentrations can decline during the competition, an additional component (deoxyHb minus oxyHb) could be expected.
(A) Nitrosyl content of oxyHb (10 mM phosphate 100 μM DTPA, pH 7.4) after exposure to 1.2 μM NO, as measured by photolysis-chemiluminescence (Stamler, J. S., et al., Science, 276:2034-2037, 1997). Nitrosyl yield increases as a function of Hb concentration (P<0.05). Solid symbols, absolute yield of NO bound to Hb (FeNO plus SNO); open symbols, percentage of NO added. Data shown are the average of 7 to 19 experiments±SE. (B) Standard difference spectra of metHb (solid line), deoxyHb (dotted line), and iron nitrosylHb (dashed line) vs. oxyHb. (C) Difference spectra generated from the exposure of NO to normoxic (≈99% oxygen saturation) Hb. NO was added (in 10 aliquots totaling 2.2 μM) to 33 μM Hb in 100 mM phosphate (solid line) or 10 mM phosphate (dotted line) or 10 mM phosphate plus 0.05% borate (dashed line). […] Specifically, spectra in C were fitted, by a least-squares process, to either the simple competition model or the cooperativity model without a mass balance constraint. Cooperativity is present if add increases above that reported in the literature, as a function of oxygen tension.

IOVs = assay: Binding of SNO-Hb to IOVs from native or DIDS-treated RBCs; settings: 10 mM MOPS, pH 7, 21% O2
Description: Immunoprecipitation was carried out by incubation of TX-100 or NP-40 extracts with antibodies followed by protein G-Sepharose. We employed two monoclonal anti-AE1 antibodies (Sigma, clone BIII-136, and kindly provided by M. Telen) that recognized epitopes in the cytoplasmic domain and that produced indistinguishable results. Immune complexes were eluted with 10 mM glycine at pH 3.0, and eluates were adjusted immediately to pH 7.4 followed by photolysis/chemiluminescence. Efficiency of immunoprecipitation was confirmed by Western blotting. Binding of SNO-Hb to IOVs was assessed in 10 mM MOPS buffer, pH 7, at room temperature and 21% O2. Incubation was for 15 mins before IOVs were solubilized in 1% TX-100, and heme content was assessed spectrophotometrically. When employed, RBCs were treated for 60 mins with DIDS (0.1 mM; calculated 10-fold molar excess over AE1), then washed thoroughly to remove unreacted DIDS. RBCs were then exposed to NO (as above) or used to prepare DIDS-modified IOVs (as above).

| SNO-Hb binding to IOVs from native vs DIDS-treated RBCs (IOVs) | Structure (SMILES) | iron nitrosylHb in fitted difference spectrum (Hb; 2.2 μM NO, 33 μM Hb, 10 mM phosphate, ≈99% O2) [%] | metHb in fitted difference spectrum (Hb; 2.2 μM NO, 33 μM Hb, 100 mM phosphate, ≈99% O2) [%] | added NO accounted for by the spectra (Hb; 10 mM (low) phosphate) [%] | iron nitrosylHb in fitted difference spectrum (Hb; 10 mM phosphate plus 0.05% borate) [%] | added NO accounted for by the spectra (Hb; low phosphate plus borate) [%] |
| --- | --- | --- | --- | --- | --- | --- |
|  | [N]=O [NO, nitric oxide] | 54 | 95 | 50 | 85 | 80 |
| equal affinity | O=S(=O)(O)c1cc(N=C=S)ccc1C=Cc1ccc(N=C=S)cc1S(=O)(=O)O [DIDS, 4,4′-diisothiocyanatostilbene-2,2′-disulfonic acid] |  |  |  |  |  |
